Measured values taken from US5260189A, “Synthetic HIV-like peptides their compositions and uses” (Immunodiagnostics, Inc., priority 1992, dated 1993).
“Also recorded” adds a separate entry of the source.

Key:
antibodies to HIV-2 = assay: Rapid EIA with latex reagents to detect antibodies to HIV-2; assay type: binding
Experimental: A 125 microliter volume of 10% latex was added to a 375 microliter volume of deionized water, and mixed with an equal volume (0.5 ml) of 1M carbodiimide, pH 4.5. The mixture was shaken gently a room temperature for 1 hour, and then washed 3 times by centrifugation at 9,000×g for 10 minutes, removal of supernate, and resuspension of the pellet in a 12-14 ml volume of deionized water, pH 4.5. The free peptides at 1 mg/ml concentration (500 micrograms/ml of each peptide 4S36 and 5S70), or the peptide-BSA conjugate of peptides 4S36 and 5S70 at 500 micrograms/ml were added to the final washed activated latex pellet (1 ml volume of peptide containing solution per 125 microliters original volume of latex). […] It was determined that this stock solution of latex coated with peptide-BSA conjugate could be diluted 1:10-1:30 with latex diluent buffer for use in the rapid EIA described below.
Serum specimens were diluted 1:8 for the rapid EIA in a serum diluent buffer consisting of 0.03M Tris, pH 8 containing 0.8% NaCl, 0.05% NaN3, 0.05% Triton x-100. […] The reaction was stopped after 3-4 minutes by adding a drop of 4N H2 SO4, and the test device could be retained as a permanent record of positive (blue-purple color) or negative (white membrane) until the results were recorded. […]

antibodies to SIV/HIV-2 = assay: EIA of peptide-protein conjugates coated on polystyrene microtiter plates, macaque sera; assay type: binding, rhesus macaque (Macaca mulatta)
Text: For all of the immunoassays employing human serum, the serum samples were obtained from the King County Health Department, Seattle, Wash., U.S.A., and each serum had been characterized as positive or negative with respect to antibodies to HIV-1, as determined by testing with the commercially licensed Genetic Systems and or DuPont EIA tests. Serum from rhesus macaque monkeys (Macaca mulatta) was obtained from the University of Washington, Seattle, Wash., U.S.A., and had been characterized by a SIV whole virus lysate EIA as either containing or not containing antibodies to SIV which is nearly identical in sequence to HIV-2 in the region of the peptide epitopes studied.
(§1) The free peptides or peptide-protein conjugates of FIGS. 1-13 were initially screened for immunoreactivity by coating each well of polystyrene microtiter EIA plates (Costar, Cambridge, Mass., U.S.A.) with 0.2 ml amounts of concentrations of 5-50 micrograms/ml peptide in Tris buffer, 10 mM, pH 8.0, at 4° C. overnight. Peptides or peptide-protein conjugates showing immunoreactivity by EIA were then further diluted for coating to determine the minimal concentrations required that allowed maximal immunoreactivity with antibodies to HIV, and minimal nonspecific reactivity with normal sera. The EIA tests were performed as follows: The coating solution was removed from each well and the wells were blocked at 37° C. for 30 minutes with a solution of 50 mM phosphate, 100 mM NaCl, pH 7.4, 1% BSA, 0.5% gelatin. The wells were then aspirated dry with a microtiter plate washer and washed 3 times with a solution of 50 mM phosphate, 100 mM NaCl, 0.05% Tween 20, pH 7.4 (PBST). A 1:101 dilution (in PBST with 1% BSA, 1% NRS) of the primate serum to be tested was then added as 0.2 ml to each washed well and the plates were incubated at 37° C. for 30 minutes. The plates were then washed×3 with PBST, and 0.2 ml amounts of a 1:2000 dilution of goat anti-human (GAH) peroxidase enzyme conjugate (Organon Teknika, Cappel, Melvern, Pa., U.S.A.) that recognized human IgG, IgA, and IgM were added to each well, and the plates were incubated for 30 minutes at 37° C. The plates were then washed×3 with PBST and incubated with 0.2 ml/well substrate consisting of 0.1M citric acid pH 5.2, 0.1 mg/ml o-phenylene diamine, 0.01% H2 O2, at room temperature in the dark for 10 minutes. Reactions were stopped with 50 microliters of 4N H2 SO4, and the color development was quantitated in a Multiscan plate reader at A492. In each series of experiments positive and negative controls were included, and all tests were done in duplicate or quadruplicate. Most peptides and peptide conjugates were initially screened against a 1:101 dilution of pools of HIV positive or HIV negative sera, and the same serum pool was used to allow quantitative comparison of immunoreactivity of different free peptides or peptide-protein conjugates.
(§2) The peptides in FIGS. 1 and 5 were synthesized as described in Example 1 and conjugated to KLH or BSA as described in Example 2. These peptide-protein conjugates were coated to polystyrene microtiter plates all at a concentration 10 micrograms peptide/ml and evaluated for immunoreactivity as described in Example 3, using a 1:101 dilution of a pool of sera (HIV+/SIV+, respectively) containing antibodies to HIV-1 (FIG. 1) or to HIV-2 (FIG. 5), as well as pooled serum (HIV-/SIV-, respectively) containing no antibodies to HIV-1 or HIV-2. […] Since sera from patients infected with HIV-2 are relatively unavailable in the United States, the immunoreactivity of HIV-2 synthetic peptides was assessed using serum from macaques infected with SIV, obtained from the University of Washington Primate Center, Seattle, Wash., U.S.A. The AA sequence of SIV is nearly identical to HIV-2 in the region of the peptides synthesized (see Myers et al., Human Retroviruses and AIDS, 1988. A compilation of nucleic acid and amino acid sequences. Los Alamos National Laboratory, Los Alamos, N. Mex., 87545, USA).

antibodies to HIV-1 [1] = assay: EIA of peptide-protein conjugates coated on polystyrene microtiter plates, human sera; assay type: binding
Experimental: as §1, §2

antibodies to HIV-1 [2] = assay: Rapid HIV-1 EIA with peptide reagents immobilized on latex in rapid test device; assay type: binding, human; conditions: passive adsorption
Experimental: A test device for performing rapid tests in less than 15 minutes was prepared as illustrated in FIGS. 14 and 15. Referring to FIGS. 14 and 15, the device comprises a plastic slide 10 (approximately 1 inch wide by 3/16 inch thick by 31/4 inches long) having a plurality of funnel-like wells 12, each having a capacity of approximately 200 microliters, an upper inflow tract rim 14 diameter of approximately 9 mm and a lower outflow tract 16 diameter of approximately 2 mm. The undersurface of the outflow tract 16 is designed so as to provide a smooth even contact with a membrane filter 18 placed next to it in the apparatus. The membrane filter separates reactants passing through it by size, retaining those particles above a predetermined size, such as above 0.22 microns, or above 0.45 microns in size (depending upon the specific filter chosen), through other filters placed into the apparatus might separate by binding or affinity (i.e. nitrocellulose, glass). […]
The mixture was shaken gently a room temperature for 1 hour, and then washed 3 times by centrifugation at 9,000×g for 10 minutes, removal of supernate, and resuspension of the pellet in a 12-14 ml volume of deionized water, pH 4.5. […] It was determined that this stock solution of latex coated with peptide-BSA conjugate could be diluted 1:10-1:30 with latex diluent buffer for use in the rapid EIA described below. […]

Row | Sequence | discrimination of HIV-2+ from HIV-2- serum samples, rapid EIA (antibodies to HIV-2) | immunoreactivity with SIV/HIV-2 antibodies (FIG. 5) (antibodies to SIV/HIV-2; C-terminal BSA-SMCC conjugates, 10 micrograms peptide/ml coating, 1:101 dilution of pooled SIV+ / SIV- macaque sera) | discrimination of positive from negative macaque sera (FIG. 7) (antibodies to SIV/HIV-2; peptide-BSA conjugates) | reactivity with sera not containing antibodies to HIV-1 (FIGS. 10C, 11) (antibodies to HIV-1 [1]; BSA-SMCC conjugate, 85-87 negative human sera) | number of positive samples giving A492 less than 1.0 (antibodies to HIV-1 [1]; BSA-SMCC conjugate, 98 positive human sera (FIGS. 11A, 11B)) | positive/negative ratios (FIG. 9) (antibodies to HIV-1 [1]; BSA-peptide conjugate, polystyrene plastic type 1 (low reactivity with normal human sera)) | performance of free peptide passively adsorbed to latex (antibodies to HIV-1 [2])
1 | ARLNSWGCAFRQVCHGC [2S25] | capable of discriminating | Significant immunoreactivity; also recorded: best immunoreactivity; also recorded: maximally immunoreactive | most favorable performances |  |  |  | 
2 | VWGCSGKLICTTAVPGC [4S36, unnatural variant of HIV-1 gp41 peptide 2S09] |  |  |  | acceptably low | none | ≥ 20 | produced an immunoreactive reagent
